Reference: patent US8741578B2, “Methods of detecting chronic lymphocytic leukemia with Hsp90 and ZAP-70” (The Regents of the University of California, priority 2004, dated 2014)
Values joined by “and” are separate entries in the source; they are usually repeats but may differ in a detail not shown here. Equal entries are not always repeated. “Also recorded” adds a separate entry of the source. Where two headings read alike, the source gives them in different places.

Experiments:
[1] = system: Hsp90 from ZAP-70-negative CLL cells, normal B and T cells; details: read-out: IC50, inhibition of binding of Hsp90 to biotin-GM; lysates from ZAP-70-negative CLL cells or normal T or B cells
Procedure: The binding affinity of the ligand is measured by its ability to inhibit the binding of geldanamycin, an inhibitor of Hsp90. The cell containing the Hsp90 is lysed in lysis buffer. The lysates are incubated with or without test agent and then incubated with biotin-geldanamycin linked to BioMag™ sreptavidin magnetic beads (Qiagen). The bound samples and the unbound supernatant can be separately collected and analyzed on SDS protein gels, and blotted using and Hsp90 antibody. The bands in the Western Blots may be quantitated using the Biorad Fluor-S MultiImager, and the percent inhibition of binding of Hsp90 to the biotin-geldanamycin calculated.
Tubes were placed on a magnetic rack, and the unbound supernatant removed. The magnetic beads were washed in lysis buffer and heated for 5 min at 95° C. in SDS-PAGE sample buffer. Samples were analyzed on SDS protein gels, and immunoblots performed using the indicated antibodies. The band intensities in the immunoblots were assessed using the Bio-rad Fluor-S MultiImager, and the percentage inhibition of binding of Hsp90 to the biotin-GM calculated.

ZAP-70 in CLL cells = assay: ZAP-70 expression in CLL cells after treatment (intracellular staining, immunoblot); assay type: cell-based, human; details: for IC50: read-out: IC50, dose-dependent reduction of leukemia-cell ZAP-70 expression
Procedure: Cells incubated in media with DMSO 1% final concentration were used as a control (⋄). ZAP-70 expression was evaluated by intracellular staining. […] In addition, immunoblots were probed with anti-Hsp70 and anti-poly ADP-ribose polymerase (PARP-1) monoclonal antibodies. β-actin was used as a protein loading control. […] The cells were stained with specific antibodies and analyze by flow cytometry.
(§1) Protein lysates for immunoblot studies were prepared using RIPA buffer with protease inhibitors (10 μg/ml aprotinin, 10 μg/ml leupeptin, 10 μg/ml pepstatin and 1 mM phenylmethylsulfonyl fluoride), and in some cases phosphatase inhibitors (1 mM Na-Vanadate and 10 mM β-Glycerophosphate). Membranes were probed with antibodies as indicated. Detection was accomplished by chemiluminescence using horseradish peroxidase (HRP) conjugated antibodies followed by development with ECL Plus (Amersham-Biosciences Piscataway, N.J.) and autoradiography with Super RX film (Fuji, Tokyo, Japan)
(§2) Fluorochrome-conjugated monoclonal antibodies were used for flow cytometry. The samples were processed using a FACScalibur (Becton-Dickinson B D, Franklin Lakes, N.J.) and the data were analyzed using Flo-Jo 3.6 software (Stanford University-Tree Star Inc. San Francisco, Calif.). Apoptotic and viable cells were discriminated via flow cytometry with 3,3′ dihexyloxacarbocyanine iodide (DiOC6) (Molecular Probes, Eugene, Oreg.) and propidium iodide (Sigma, St. Louis, Mo.). Using this method viable cells exclude PI and stain brightly positive for DiOC6.

[2] = system: Purified native Hsp90 protein; details: read-out: IC50, inhibition of binding of Hsp90 to biotin-GM
Procedure: Valencia, Calif.) for 1 h at 4° C. Tubes were placed on a magnetic rack, and the unbound supernatant removed. The magnetic beads were washed in lysis buffer and heated for 5 min at 95° C. in SDS-PAGE sample buffer. Samples were analyzed on SDS protein gels, and immunoblots performed using the indicated antibodies. The band intensities in the immunoblots were assessed using the Bio-rad Fluor-S MultiImager, and the percentage inhibition of binding of Hsp90 to the biotin-GM calculated.

[3] = system: B-cell receptor (BCR) signaling in ZAP-70+ CLL cells; assay: B-cell receptor signaling after anti-μ stimulation in ZAP-70+ CLL cells (IP/immunoblot)
Procedure: Pxotein lysates were immunoprecipitated (IP) with specific anti-p72^Syk antibody and assessed by western blot (WB) for tyrosine phosphorylation using 4G10 antibody and p72^Syk expression. Protein lysates from the same samples were evaluated by western blot using the indicated antibodies. Activation of NF-κB was assessed by degradation of IκB-α.
Lysates were prepared as described above. Protein-A Sepharose beads (Zymed Laboratories Inc South San Francisco, Calif.) were pre-blocked with 5% BSA. The cell lysates were pre-cleared by incubating with 50 μl of protein-A Sepharose beads (50% slurry). To 100 μl of the pre-cleared cell lysate, either no antibody or antibodies to Hsp90, ZAP-70, p23, Hop, or p72^Syk were added, and incubated by rotating for 1 h at 4° C. Fifty μl of pre-cleared beads (50% slurry) were then added and incubated by rotating for 1 h at 4° C. Bound beads were centrifuged at 3,000×g and unbound samples were collected.
as §1

CLL cells in whole blood = assay: Whole blood apoptosis test of CLL subpopulation (DiOC6, anti-CD5/anti-CD19); details: different concentrations, room temperature
Procedure: For example, whole blood cells from patients with CLL or suspected of having CLL can be obtained. […] Red cells are lysed using ammonium-chloride buffer. The cells are stained with specific antibodies and DiOC6. Samples are analyzed by flow cytometry to show a density plot of cells labeled with anti-CD5 and anti-CD19.

CLL cells = assay: Apoptosis of primary CLL cells by flow cytometry (DiOC6/PI); details: 100 nM; for Apoptosis after treatment: ZAP-70+ CLL cells
Procedure: IgVH gene mutation was assessed by gene sequencing. Sequences with less than 98 percent homology to the corresponding germ-line IgVH sequence were considered mutated. […] Peripheral blood mononuclear cells (PBMC) from CLL patients were obtained from the CLL Research Consortium (CRC) tissue bank. […] ZAP-70 expression and IgVH gene mutational status were assessed. Cells were incubated in RPMI media at 37° C. with 5% CO2. […] Cell samples were incubated also in media with DMSO (1%) as a control.
as §2

ZAP-70 in T cells = assay: ZAP-70 expression in T cells after treatment (flow cytometry); assay type: cell-based, human
Procedure: Cells incubated in media with DMSO 1% final concentration were used as a control (⋄). ZAP-70 expression was evaluated by intracellular staining. […] The cells were stained with specific antibodies and analyze by flow cytometry.
Fluorochrome-conjugated monoclonal antibodies were used for flow cytometry. The samples were processed using a FACScalibur (Becton-Dickinson B D, Franklin Lakes, N.J.) and the data were analyzed using Flo-Jo 3.6 software (Stanford University-Tree Star Inc. San Francisco, Calif.).

[4] = system: Ad-ZAP-70 transduced CLL cells; assay: Apoptosis of ZAP-70-negative CLL cells transduced with Ad-ZAP-70; assay type: cell-based, human; details: 100 nM, 48 hours after 48 hours of transduction; P≦0.001
Procedure: . (A) ZAP-70-negative leukemia cells were transduced with adenovirus expressing ZAP-70 (Ad-ZAP-70—solid histogram) and β-galactosidase (Ad-LacZ—bold line histogram). Cells were kept in media as a control (dashed line histogram). After 48 hours in culture Ad-ZAP-70 but not Ad-LacZ transduced cells expressed the ZAP-70 transgene (46% expression with a mean fluorescence intensity ratio (MFIR) of 2.8). (B) ZAP-70-negative CLL cells were transduced with adenovirus and after 48 hours they were harvested and lysed. Immunoprecipitations (IP) and immunoblots were performed with the antibodies indicated. […]
cDNA of ZAP-70 extracted from normal T cells was cloned into the CMV promoter and polyadenylation signal of pcDNA3. This construct was then subcloned into the shuttle vector MCS(SK)pXCX2. This shuttle vector was cotransfected with pJM17 into 293 cells using the calcium phosphate method.
Isolated adenovirus plaques were harvested and used to infect 293 cells. High titer adenovirus preparations were obtained. CLL cells were infected with either Ad-ZAP-70 or a control adenovirus vector (Ad-LacZ) for 48 hours at 37° C. using a multiplicity of infection (MOI) of 1000.
. ZAP-70-negative CLL cells were transduced with an adenovirus vector encoding ZAP-70 (Ad-ZAP-70) or β-galactosidase (Ad-LacZ) as a control. […]

Structure (SMILES): C=CCNC1=C2CC(C)CC(OC)C(O)C(C)/C=C(\C)C(OC(N)=O)C(OC)/C=C\C=C(/C)C(=O)NC(=CC1=O)C2=O (centres unmarked) [17-AAG, 17-allylamino-17-demethoxygeldanamycin]
- IC50 [1]: ≥ 0.3 µM
- Post-treatment ZAP-70 mean fluorescence intensity (MFI) (ZAP-70 in CLL cells; CLL cells, 300 nM, 48 hours, prior to treatment 110): 25
- IC50 (ZAP-70 in CLL cells; Homo sapiens, CLL cell, 24 h): 0.06 µM
- IC50 [2]: 0.6 µM
- Effect on level/degradation of p72Syk, IKK-α ([3]; ZAP-70+ CLL cells): did not alter the level of p72^Syk; also recorded: did not induce degradation of p72^Syk or IKK-α
- Response to BCR ligation with anti-μ (p72Syk phosphorylation, IκB-α degradation) ([3]; prior treatment for ≧24 hours): inert to stimulation with anti-μ antibody
- Induction of apoptosis in whole blood CLL subpopulation (CLL cells in whole blood): exclusively in the ZAP-70 positive cells
- 17-AAG-induced apoptosis, % (CLL cells; 48 hours, primary CLL cells, each table row is one patient sample (patient no. 1-25)): 4.7% and 11.5% and 12.3% and 14.9% and 3.7% and 0.5% and 12.6% and 3.4% and 22.4% and 55.4% and 33.9% and 37.9% and 35.4% and 41.3% and 57.9% and 57.7% and 67.4% and 69.4% and 66.8% and 78.8% and 79.9% and 74.4% and 3.9% and 4.5% and 1.2%
- Apoptosis after treatment (CLL cells; 24 hours): 30%
- Apoptosis after treatment (CLL cells; 72 hours): 50%
- Effect on ZAP-70 expression in T cells (ZAP-70 in T cells; T cells from CLL patients or healthy donors, even at ≧300 nM): did not affect ZAP-70 expression levels in T cells
- Post-treatment ZAP-70 mean fluorescence intensity (MFI) (ZAP-70 in T cells; T cells, 300 nM, 48 hours, prior to treatment 210): 190
- Apoptosis compared with non-transduced or Ad-LacZ transduced cells [4]: significantly higher level of apoptosis

Structure (SMILES): CO[C@H]1/C=C\C=C(/C)C(=O)NC2=CC(=O)C(NCCN(C)C)=C(C[C@@H](C)C[C@H](OC)[C@H](O)[C@@H](C)/C=C(\C)[C@@H]1OC(N)=O)C2=O [17-DMAG, 17-(2-dimethylaminoethy)amino-17-demethoxygeldanamycin]
- IC50 (ZAP-70 in CLL cells; ZAP-70+ CLL cells, after 24 hours): 0.06 µM
